Laboratory results as given in US11479539B2, “Small molecule modulators of the BTB domain of Keap1” (MedImmune Limited, priority 2017, dated 2022).

Molecular target: Keap1 (Homo sapiens (Human), UniProt Q14145)
Test: HEK293 ARE luciferase assay
Type: cell-based
Settings: HEK-293 ARE firefly luciferase transiently transfected cells; 18 h incubation; mean of 1 to 20 individual measurements
Source text: The purpose of this assay is to identify small molecule inhibitors of Keap1, preventing Keap1 binding to Nrf2, and thus activating the Nrf2 signalling pathway in HEK-293 ARE firefly luciferase transiently transfected cells. HEK-293 cells express wild-type Keap1 protein and therefore have low constitutive levels of Nrf2 protein and Nrf2-dependent transcription. […] When Keap1 is inhibited, Nrf2 signalling is activated, and there is an increase in luciferase expression and light emission.
Cryopreserved HEK ARE luciferase cells were rapidly thawed in a 37° C. water bath and resuspended in assay culture medium (DMEM, 10% FCS, 2 mM L-glutamine). The cell suspension was pelleted by centrifugation ([…]; 300 g) using a Heraeus benchtop centrifuge. Supernatant was removed and the pellet was gently resuspended in 5 mL culture medium per vial. Cell viability and cell number was measured using an Invitrogen Countess automated cell counter (typical viability 80%), and cells were diluted to a density of 5.0×10^5 cells/mL.
Cells were then plated out into white 384-well plates (Greiner 781080) using a Multidrop Combi, 20 μL/well, to give 10,000 cells/well. As appropriate, test compounds had been added to wells prior to dispensing cells using an Echo 555 acoustic dispenser (Labcyte). Plates were left at room temperature for ˜10 min to promote even cell settling across the plate before incubation for 18 h at 37° C., 95% humidity and 5% CO2.
After 18 h incubation, plates were removed from the incubator and allowed to cool to room temperature for 30 min, before 10 μL per well SteadyGlo reagent detection reagent was added (as per manufacturer's instructions, 10 min before required 10 mL room temperature buffer was added to one vial of lyophilised substrate and inverted several times to fully dissolve). Plates were then incubated in the dark for 30 min before reading on an Envision plate reader.
Compounds were acoustically dispensed using a Labcyte Echo, using a 10 pt dose curve with a top concentration of 100 μM. Assay wells were backfilled with DMSO to a total of 60 nL to maintain 0.3% (v/v) DMSO through the assay.
The Stimulator signal was defined using 30 μM tert-butyl hydroquinone (tBHQ) and the Neutral signal by DMSO vehicle control. All calculations were performed using GeneData.
In IBIS Column Calculations, Assay Type was set to ‘Stimulator’, and the Activity Threshold was set to 50.
The mean values were calculated from anywhere from 1 to 20 individual measurements.

Keap1, sequence (Q14145 whole entry): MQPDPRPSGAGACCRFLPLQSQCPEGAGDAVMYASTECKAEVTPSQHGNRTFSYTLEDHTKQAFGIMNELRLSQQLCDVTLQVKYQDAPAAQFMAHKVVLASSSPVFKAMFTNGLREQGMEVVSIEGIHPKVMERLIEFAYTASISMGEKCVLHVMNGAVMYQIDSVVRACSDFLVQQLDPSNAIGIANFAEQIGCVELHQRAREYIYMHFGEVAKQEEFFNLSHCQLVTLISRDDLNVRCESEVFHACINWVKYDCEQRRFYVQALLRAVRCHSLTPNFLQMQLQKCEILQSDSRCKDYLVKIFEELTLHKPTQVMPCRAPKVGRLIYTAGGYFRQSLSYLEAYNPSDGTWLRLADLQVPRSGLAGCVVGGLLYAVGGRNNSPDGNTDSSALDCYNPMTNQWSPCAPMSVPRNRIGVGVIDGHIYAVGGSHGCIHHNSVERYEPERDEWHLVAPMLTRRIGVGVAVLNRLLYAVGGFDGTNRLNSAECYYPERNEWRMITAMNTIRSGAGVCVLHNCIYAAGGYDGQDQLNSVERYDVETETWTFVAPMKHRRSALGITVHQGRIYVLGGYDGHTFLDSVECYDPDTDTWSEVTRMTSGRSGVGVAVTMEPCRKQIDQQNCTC

Row | SMILES | EC50
1 | COC1(c2ncccc2C(F)F)C=C(C#N)C(=O)C(C)(C)C1 (single isomer, unassigned) [Compound 5, 3-(3-(difluoromethyl)pyridin-2-yl)-3-methoxy-5,5-dimethyl-6-oxocyclohex-1-enecarbonitrile] | 10 nM
2 | [2H]C([2H])([2H])OC1(c2cccc(-c3cnn(C)c3)n2)C=C(C#N)C(=O)C(C)(C)C1 (single isomer, unassigned) [Compound 14, 5,5-Dimethyl-3-[6-(1-methylpyrazol-4-yl)-2-pyridyl]-6-oxo-3-(trideuterio-methoxy)cyclohexene-1-carbonitrile] | 12 nM
3 | COC1(c2ncccc2C(F)(F)F)C=C(C#N)C(=O)C(C)(C)C1 (single isomer, unassigned) [Compound 15, 3-methoxy-5,5-dimethyl-6-oxo-3-(3-(trifluoromethyl)pyridin-2-yl)cyclohex-1-enecarbonitrile] | 24 nM
4 | COC1(c2ncccc2-c2cnn(C)c2)C=C(C#N)C(=O)C(C)(C)C1 (single isomer, unassigned) [Compound 23, 3-methoxy-5,5-dimethyl-3-(3-(1-methyl-1H-pyrazol-4-yl)pyridin-2-yl)-6-oxocyclohex-1-enecarbonitrile] | 56 nM
5 | COC1(c2ncc(F)cc2C(F)(F)F)C=C(C#N)C(=O)C(C)(C)C1 (single isomer, unassigned) [Compound 26, 3-(5-fluoro-3-(trifluoromethyl)py-ridin-2-yl)-3-methoxy-5,5-dimethyl-6-oxocyclohex-1-enecarbonitrile] | 24 nM
6 | COC1(c2ccc(F)cn2)C=C(C#N)C(=O)C(C)(C)C1 (single isomer, unassigned) [Compound 27, 3-(5-fluoropyridin-2-yl)-3-methoxy-5,5-dimethyl-6-oxocyclohex-1-enecarbonitrile] | 180 nM
7 | COC1(c2ncc(F)cc2C)C=C(C#N)C(=O)C(C)(C)C1 (single isomer, unassigned) [Compound 31, 3-(5-fluoro-3-methylpyridin-2-yl)-3-methoxy-5,5-dimethyl-6-oxocyclohex-1-enecarbonitrile] | 19 nM
8 | COC1(c2ccc(Cl)cn2)C=C(C#N)C(=O)C(C)(C)C1 (single isomer, unassigned) [Compound 32, 3-(5-chloropyridin-2-yl)-3-methoxy-5,5-dimethyl-6-oxocyclohex-1-enecarbonitrile] | 55 nM
9 | COC1(c2nc(C(F)(F)F)cs2)C=C(C#N)C(=O)C(C)(C)C1 (single isomer, unassigned) [Compound 33, 3-methoxy-5,5-dimethyl-6-oxo-3-(4-(tri-fluoromethyl)thia-zol-2-yl)cyclohex-1-enecarbonitrile] | 383 nM
10 | COC1(c2sccc2C)C=C(C#N)C(=O)C(C)(C)C1 (single isomer, unassigned) [Compound 34, 3-methoxy-5,5-dimethyl-3-(3-methylthiophen-2-yl)-6-oxocyclohex-1-enecarbonitrile] | 12 nM
11 | CCOC1(c2ncccc2C(F)(F)F)C=C(C#N)C(=O)C(C)(C)C1 (single isomer, unassigned) [Compound 35, 3-ethoxy-5,5-dimethyl-6-oxo-3-(3-(trifluoromethyl)py-ridin-2-yl)cyclohex-1-enecarbonitrile] | 39 nM
12 | COC1(c2nc(C)cs2)C=C(C#N)C(=O)C(C)(C)C1 (single isomer, unassigned) [Compound 36, 3-methoxy-5,5-dimethyl-3-(4-methylthiazol-2-yl)-6-oxocyclohex-1-enecarbonitrile] | 96 nM
13 | CCOC1(c2ccc(F)cn2)C=C(C#N)C(=O)C(C)(C)C1 (single isomer, unassigned) [Compound 37, 3-ethoxy-3-(5-fluoropyridin-2-yl)-5,5-dimethyl-6-oxocyclohex-1-enecarbonitrile] | 86 nM
14 | COC1(c2nccs2)C=C(C#N)C(=O)C(C)(C)C1 (single isomer, unassigned) [Compound 39, 3-methoxy-5,5-dimethyl-6-oxo-3-(thiazol-2-yl)cyclohex-1-enecarbonitrile] | 125 nM
15 | COC1(c2ncccc2OC(F)(F)F)C=C(C#N)C(=O)C(C)(C)C1 (single isomer, unassigned) [Compound 41, 3-methoxy-5,5-dimethyl-6-oxo-3-(3-(trifluoromethoxy)py-ridin-2-yl)cyclohex-1-enecarbonitrile] | 11 nM
16 | COC1(c2scnc2C)C=C(C#N)C(=O)C(C)(C)C1 (single isomer, unassigned) [Compound 43, 3-methoxy-5,5-dimethyl-3-(4-methylthiazol-5-yl)-6-oxocyclohex-1-enecarbonitrile] | 129 nM
17 | COC1(c2ncc(F)cc2F)C=C(C#N)C(=O)C(C)(C)C1 (single isomer, unassigned) [Compound 44, 3-(3,5-difluoropyridin-2-yl)-3-methoxy-5,5-dimethyl-6-oxocyclohex-1-enecarbonitrile] | 37 nM
18 | COC1(c2ncc(Cl)cc2C(F)F)C=C(C#N)C(=O)C(C)(C)C1 (single isomer, unassigned) [Compound 45, 3-(5-chloro-3-(difluoromethyl)py-ridin-2-yl)-3-methoxy-5,5-dimethyl-6-oxocyclohex-1-enecarbonitrile] | 28 nM
19 | COC1(c2ncc(F)cc2OC(F)F)C=C(C#N)C(=O)C(C)(C)C1 (single isomer, unassigned) [Compound 47, 3-(3-(difluoromethoxy)-5-fluoropyridin-2-yl)-3-methoxy-5,5-dimethyl-6-oxocyclohex-1-enecarbonitrile] | 8 nM
20 | COC1(c2ncc(F)cc2Br)C=C(C#N)C(=O)C(C)(C)C1 (single isomer, unassigned) [Compound 48, 3-(3-bromo-5-fluoropyridin-2-yl)-3-methoxy-5,5-dimethyl-6-oxocyclohex-1-enecarbonitrile] | 6 nM
21 | COC1(c2cccc(-c3cnn(C)c3)n2)C=C(C#N)C(=O)C2(CC2)C1 (single isomer, unassigned) [Compound 49, 7-methoxy-7-(6-(1-methyl-1H-pyrazol-4-yl)pyridin-2-yl)-4-oxospiro[2.5]oct-5-ene-5-carbonitrile] | 138 nM
22 | COC1(c2cccc(-c3cnc(C)nc3)n2)C=C(C#N)C(=O)C2(CC2)C1 (single isomer, unassigned) [Compound 50, 7-methoxy-7-(6-(2-methylpyrimidin-5-yl)pyridin-2-yl)-4-oxospiro[2.5]oct-5-ene-5-carbonitrile] | 30 nM
23 | COC1(c2cccc(-c3cncnc3)n2)C=C(C#N)C(=O)C2(CC2)C1 (single isomer, unassigned) [Compound 51, 7-methoxy-4-oxo-7-(6-(pyrimidin-5-yl)pyridin-2-yl)spiro[2.5]oct-5-ene-5-carbonitrile] | 48 nM
24 | COC1(c2cccc(-c3c(C)noc3C)n2)C=C(C#N)C(=O)C2(CC2)C1 (single isomer, unassigned) [Compound 52, 7-(6-(3,5-dimethylisoxazol-4-yl)pyridin-2-yl)-7-methoxy-4-oxospiro[2.5]oct-5-ene-5-carbonitrile] | 74 nM
25 | COC1(c2cccc(-c3ccnn3C)n2)C=C(C#N)C(=O)C2(CC2)C1 (single isomer, unassigned) [Compound 53, 7-methoxy-7-(6-(1-methyl-1H-pyrazol-5-yl)pyridin-2-yl)-4-oxospiro[2.5]oct-5-ene-5-carbonitrile] | 133 nM
26 | COC1(c2cncc(C)n2)C=C(C#N)C(=O)C2(CC2)C1 (single isomer, unassigned) [Compound 54, 7-methoxy-7-(6-methylpyrazin-2-yl)-4-oxospiro[2.5]oct-5-ene-5-carbonitrile] | 363 nM
27 | COC1(c2ccccn2)C=C(C#N)C(=O)C2(CC2)C1 (single isomer, unassigned) [Compound 56, 7-methoxy-4-oxo-7-(pyridin-2-yl)spiro[2.5]oct-5-ene-5-carbonitrile] | 179 nM
28 | COC1(c2ncccc2C(F)(F)F)C=C(C#N)C(=O)C2(CC2)C1 (single isomer, unassigned) [Compound 57, 7-methoxy-4-oxo-7-[3-(trifluoromethyl)pyridin-2-yl]spiro[2.5]oct-5-ene-5-carbonitrile] | 47 nM
29 | COC1(c2nc(C)cs2)C=C(C#N)C(=O)C2(CC2)C1 (single isomer, unassigned) [Compound 59, 7-methoxy-4-7-(4-methyl-1,3-thiazol-2-yl)-4-oxospiro[2.5]oct-5-ene-5-carbonitrile] | 261 nM
30 | COC1(c2ncc(F)cc2F)C=C(C#N)C(=O)C2(CC2)C1 (single isomer, unassigned) [Compound 60, 7-(3,5-difluoropyridin-2-yl)-7-methoxy-4-oxospiro[2.5]oct-5-ene-5-carbonitrile] | 153 nM
